Experiments:
carcinogenesis = experiment: inhibition of carcinogenesis in in vitro and animal models; conditions: comparable dosages and routes of administration; cell and animal studies
Excerpt: Exemplary lunasin-del compounds include (again using N→C nomenclature convention) shown to be effective at inhibiting carcinogenesis in in vitro and animal models include:
BBI is an 8 kDa protein that is known to dimerize in solution.

mammalian cells [1] = experiment: effect on mitosis and kinetochore assembly of mammalian cells; format: cell-based
Excerpt: (§1) The lunasin polypeptide also contains a functional RGD (arg-gly-asp) motif.

[2] = test system: C3H 10T1/2 mouse fibroblast cells; experiment: in vitro transformation assay of C3H 10T1/2 cells with carcinogens MCA and DMBA; format: cell-based
cell membrane integrins = experiment: binding to cell membrane integrins in mammalian cell cultures; format: cell-based; conditions: exogenously applied; through the RGD tripeptide
Excerpt: as §1

mammalian cells [3] = experiment: internalization of lunasin into the cell; format: cell-based
Excerpt: as §1
Chromatin Modification and Tumor Suppression. […] (DePinho,1998; Brehm et al, 1998; Magnaghi-Jaulin, 1998; Pazin and Kadonaga, 1997; Hassig et al, 1997; Laherty et al, 1997). For instance, the retinoblastoma protein Rb is complexed with E2F (a family of transcription factors controlled by Rb) and HDAC1 (the major mammalian histone deacetylase which modulates chromatin structure) in mammalian cells. Rb represses E2F-regulated promoter by recruiting HDAC1 which deacetylates core histones causing a tighter association between DNA and nucleosomes, thus impairing the binding of transcription factors to recognition elements in DNA. The Rb/HDAC/E2F complex could be the target for transforming viruses leading to the release of suppression and a fully transformed state. […] Consequently, gene expression is more or less permanently repressed.

hypoacetylated chromatin = experiment: binding of lunasin to chromatin in cells; format: cell-based
Excerpt: as §1

[4] = test system: carcinogen-treated cultured cells; conditions: in vitro or in vivo; cited from earlier work

| Molecule | efficacy when substituted for BBI (carcinogenesis) | effect on kinetochore assembly (mammalian cells [1]; exogenously applied, internalized lunasin, cells undergo normal mitosis) | effect on mitosis (mammalian cells [1]; when expressed in mammalian cells) | concentration of exogenously applied peptide (as low as) that inhibits transformation into tumorous foci ([2]; carcinogens MCA and DMBA, range 10 nM to 10 mM) [nM] | prevention of carcinogen-induced tumor formation compared with BBIC ([2]; equimolar amounts) | inhibition of carcinogen-mediated transformation of fibroblast cells into tumorous foci ([2]; exogenous application, carcinogens MCA and DMBA) | binding to cell membrane integrins (cell membrane integrins) | internalization in the cell (mammalian cells [3]) | binding to chromatin (hypoacetylated chromatin; exogenously applied to mammalian cell cultures, lunasin that gets into the nucleus) | binding to chromatin (hypoacetylated chromatin; lunasin gene transfected and expressed inside the cell) | effect on carcinogenesis after administration of the agent is stopped [4] |
| --- | --- | --- | --- | --- | --- | --- | --- | --- | --- | --- | --- |
| lunasin | provides efficacy | appears not to affect kinetochore assembly | antimitotic effect | 10 | more effective than BBIC | inhibits the transformation | binds to cell membrane integrins | gets internalized in the cell via the RGD motif | sufficient to effectively bind regions of hypoacetylated chromatin | preferentially binds to hypoacetylated chromatin |  |
| vitamin E |  |  |  |  |  |  |  |  |  |  | reversible effect |
| CC1=C(/C=C/C(C)=C/C=C/C(C)=C/C=C/C=C(C)/C=C/C=C(C)/C=C/C2=C(C)CCCC2(C)C)C(C)(C)CCC1 [b-carotene] |  |  |  |  |  |  |  |  |  |  | reversible effect |
